According to patent US9302085B2, “Methods and compositions for facilitating arterial access” (The Regents of the University of California, priority 2009, dated 2016):
“Also recorded” adds a separate entry of the source.

System: radial artery
Assay: Radial artery diameter measured with ultrasound after topical application to the wrist
Type: in vivo, human
Details: for effect on the vasodilatory action of nitroglycerin: adjacent skin sites
Protocol: A dose escalation study of topical nitroglycerin was performed. Twenty healthy volunteers were selected based on the following inclusion criteria: willing and able to give written informed consent and comply with study requirements; and able to speak English. In addition, the subjects were selected based on the following exclusion criteria: presence or history of liver, cardiovascular, rheumatologic, cancer or renal disease; current treatment with any vasodilator therapy; systolic blood pressure of less than 90 mmHg; history of radial artery catheterization within the previous year; absence of radial artery blood flow in one or both arms; pregnancy; and active infection.
Each of the twenty selected subjects received either 15 mg or 30 mg of nitroglycerin (Nitro-Bid 2% ointment, 1 or 2 inches, E Fougera & Co, NY) applied to one wrist and a placebo (sorbolene cream) applied to the other wrist. Applications were performed as single-blind (subject) experiments. Radial artery diameter was measured with ultrasound before application of the topical compositions and at time intervals after application of the topical compositions. The subjects were tested again at a later date, where they received the alternate dose of nitroglycerin on one wrist and the placebo on the other wrist.
The same subjects received topical applications of nitroglycerin (30 mg) with either 20 mg or 40 mg of lidocaine topical cream (LMX 4%, Ferndale, Mich.). The nitroglycerin and lidocaine were applied at adjacent skin sites on the wrist.

SMILES: CCN(CC)CC(=O)Nc1c(C)cccc1C [lidocaine]
- effect on the vasodilatory action of nitroglycerin (20 mg lidocaine topical cream with 30 mg nitroglycerin, FIG. 2): no detectable effect
- effect on the vasodilatory action of nitroglycerin (40 mg lidocaine topical cream with 30 mg nitroglycerin, FIG. 3): did not prevent the vasodilation; also recorded: no detectable effect
- effect on arterial diameter (lidocaine alone, topical, FIG. 3): no appreciable effect

SMILES: O=[N+]([O-])OCC(CO[N+](=O)[O-])O[N+](=O)[O-] [nitroglycerin]
- increase in radial artery diameter compared to the placebo (15 mg nitroglycerin topical on one wrist, healthy volunteers, FIG. 1): did not significantly increase
- increase in radial artery diameter (30 mg nitroglycerin topical on one wrist, healthy volunteers, FIG. 1): approximately 25%
- duration of the increase in radial artery diameter (30 mg nitroglycerin topical, 2-hour application): maintained during the 2-hour application
- vasodilation (radial artery diameter versus time) (30 mg nitroglycerin topical, FIG. 1): significant vasodilation
- diameter of the radial artery in the contralateral wrist (topical nitroglycerin on the other wrist): did not affect
